How the values were obtained:
Format in all cases: cell-based
ABCC1 = target: T1, ABCC1 (Homo sapiens, UniProt P33527); assay: calcein AM fluorescence accumulation assay, ABCC1-overexpressing H69AR cells; details: for activity against ABCC1 in preliminary screening: screened at 10 µM, active = at least 20% (+SEM) of effect of 10 µM compound 26
T1 construct: ABCC1-overexpressing H69AR (60,000 cells/well) cells were added; host or cells: H69AR
Description: (§1) Compounds 16–25 were screened at 10 µM in calcein AM (ABCB1 and ABCC1) as well as pheophorbide A (ABCG2) fluorescence accumulation assays using either ABCB1-overexpressing A2780/ADR, ABCC1-overexpressing H69AR, or ABCG2-overexpressing MDCK II BCRP cells, respectively, as reported earlier, [43], [45], [67], [101]. Calcein AM and pheophorbide A are substrates of ABCB1 and ABCC1 as well as ABCG2, respectively, which passively diffuse into the used cells and become extruded by the corresponding ABC transporter. Inhibition of the respective transporter results in the accumulation of these substrates. Calcein AM is subsequently cleaved by intracellular esterases to the fluorescent calcein, while pheophorbide A is already fluorescent. Intracellular fluorescence was determined via microplate reader (calcein AM; ABCB1 and ABCC1) and flow cytometry (pheophorbide A; ABCG2), respectively. Compounds 2 (Fig. 1) and 26–27 (Fig. 5) were used as reference inhibitors against ABCB1, ABCC1, and ABCG2, respectively, as reported before, [101]. Fig. 7 provides the screening results for ABCB1 (A), ABCC1 (B), and ABCG2 (C).
(§2) The ABCB1-overexpressing A2780/ADR cells were delivered by European Collection of Animal Cell Culture (ECACC, no. 93112520) and cultivated using RPMI-1640 medium (PAN-Biotech GmbH, Aidenbach, Germany) complemented with fetal bovine serum (FCS; 10%; PAN-Biotech GmbH, Aidenbach, Germany), streptomycin (50 µg/µL; PAN-Biotech GmbH, Aidenbach, Germany), penicillin G (50 U/mL; PAN-Biotech GmbH, Aidenbach, Germany), as well as L-glutamine (2 mM; PAN-Biotech GmbH, Aidenbach, Germany). The ABCC1-overexpressing H69AR cells were provided by American Type Culture Collection (ATCC CRL-11351), which were cultured with RPMI-1640 medium to which FCS (20%), streptomycin (50 µg/µL), penicillin G (50 U/mL), as well as L-glutamine (2 mM) were added. Dr. A. Schinkel (The Netherlands Cancer Institute, Amsterdam, The Netherlands) generously provided the ABCG2-overexpressing MDCK II BCRP cells, which were cultivated in Dulbecco's modified eagle medium (DMEM; Sigma Life Science, Steinheim, Germany) complemented with FCS (10%), streptomycin (50 µg/µL), penicillin G (50 U/mL), as well as L-glutamine (2 mM). […]
(§3) The inhibitory activity against ABCB1 and ABCC1 was evaluated in a calcein AM assay as reported earlier, [67], [101]. […] The incubation period at 37 °C under 5% CO2-humidified atmosphere lasted 30 min before 20 µL of a 3.125 µM calcein AM was added to each well, subsequently followed by measurement of fluorescence increase at an excitation wavelength of 485 nm and an emission wave length of 520 nm in 60 sec intervals for 1 h in either POLARstar and FLUOstar Optima microplate readers (BMG Labtech, software versions 2.00R2/2.20 and 4.11-0; Offenburg, Germany).

ABCB1 = target: T2, ABCB1 (Homo sapiens, UniProt P08183); assay: calcein AM fluorescence accumulation assay, ABCB1-overexpressing A2780/ADR cells; details: for activity against ABCB1 in preliminary screening: screened at 10 µM, active = at least 20% (+SEM) of effect of 10 µM compound 2
T2 construct: ABCB1-overexpressing A2780/ADR (30,000 cells/well); host or cells: A2780/ADR
T2 sequence (P08183 whole entry): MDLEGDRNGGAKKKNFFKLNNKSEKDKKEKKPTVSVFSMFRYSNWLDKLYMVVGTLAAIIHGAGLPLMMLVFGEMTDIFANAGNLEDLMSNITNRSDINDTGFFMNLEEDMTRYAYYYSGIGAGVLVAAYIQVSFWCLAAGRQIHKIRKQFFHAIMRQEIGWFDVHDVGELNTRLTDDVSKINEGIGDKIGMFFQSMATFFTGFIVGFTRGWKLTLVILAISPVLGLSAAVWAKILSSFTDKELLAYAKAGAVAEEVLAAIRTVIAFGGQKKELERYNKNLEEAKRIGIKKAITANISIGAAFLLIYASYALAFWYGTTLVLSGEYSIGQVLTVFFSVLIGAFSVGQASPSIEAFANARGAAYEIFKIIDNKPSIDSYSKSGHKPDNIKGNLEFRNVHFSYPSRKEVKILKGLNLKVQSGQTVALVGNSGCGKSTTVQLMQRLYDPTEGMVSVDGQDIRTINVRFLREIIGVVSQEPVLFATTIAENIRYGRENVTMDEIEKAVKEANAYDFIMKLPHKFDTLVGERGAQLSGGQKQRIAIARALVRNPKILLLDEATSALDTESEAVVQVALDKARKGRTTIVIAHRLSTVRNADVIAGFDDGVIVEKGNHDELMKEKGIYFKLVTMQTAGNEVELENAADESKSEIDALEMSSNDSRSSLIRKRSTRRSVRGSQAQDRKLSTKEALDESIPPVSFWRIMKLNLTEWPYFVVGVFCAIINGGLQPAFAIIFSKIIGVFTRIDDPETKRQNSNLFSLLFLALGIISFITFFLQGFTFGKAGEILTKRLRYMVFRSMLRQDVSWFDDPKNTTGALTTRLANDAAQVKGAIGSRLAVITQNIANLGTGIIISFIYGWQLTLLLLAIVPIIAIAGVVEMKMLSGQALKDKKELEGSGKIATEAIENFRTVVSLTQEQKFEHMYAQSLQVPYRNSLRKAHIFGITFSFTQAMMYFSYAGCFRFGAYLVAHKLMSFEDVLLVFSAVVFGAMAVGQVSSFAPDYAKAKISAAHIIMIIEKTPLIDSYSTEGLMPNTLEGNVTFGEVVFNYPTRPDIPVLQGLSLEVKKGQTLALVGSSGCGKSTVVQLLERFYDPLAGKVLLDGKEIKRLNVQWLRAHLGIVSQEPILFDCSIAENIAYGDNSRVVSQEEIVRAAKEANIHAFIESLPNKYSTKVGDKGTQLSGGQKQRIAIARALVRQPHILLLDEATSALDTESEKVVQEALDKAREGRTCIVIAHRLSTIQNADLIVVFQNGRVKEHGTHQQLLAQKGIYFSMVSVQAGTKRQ
Description: as §1
as §2, with “mM). The cell lines were stored in a mixture of 90% cell culture medium and 10% DMSO under liquid nitrogen, while cultivation was performed at 37 °C under 5% CO2-humidified atmosphere. After a confluence of 90% was reached, the cells were harvested using a 0.05%/0.02% trypsin-EDTA solution (PAN-Biotech GmbH, Aidenbach, Germany).” for “mM).”
as §3

ABCG2 = target: T3, ABCG2 (Homo sapiens, UniProt Q9UNQ0); assay: pheophorbide A fluorescence accumulation assay, ABCG2-overexpressing MDCK II BCRP cells
T3 construct: host or cells: MDCK II BCRP
T3 sequence (Q9UNQ0 1-655): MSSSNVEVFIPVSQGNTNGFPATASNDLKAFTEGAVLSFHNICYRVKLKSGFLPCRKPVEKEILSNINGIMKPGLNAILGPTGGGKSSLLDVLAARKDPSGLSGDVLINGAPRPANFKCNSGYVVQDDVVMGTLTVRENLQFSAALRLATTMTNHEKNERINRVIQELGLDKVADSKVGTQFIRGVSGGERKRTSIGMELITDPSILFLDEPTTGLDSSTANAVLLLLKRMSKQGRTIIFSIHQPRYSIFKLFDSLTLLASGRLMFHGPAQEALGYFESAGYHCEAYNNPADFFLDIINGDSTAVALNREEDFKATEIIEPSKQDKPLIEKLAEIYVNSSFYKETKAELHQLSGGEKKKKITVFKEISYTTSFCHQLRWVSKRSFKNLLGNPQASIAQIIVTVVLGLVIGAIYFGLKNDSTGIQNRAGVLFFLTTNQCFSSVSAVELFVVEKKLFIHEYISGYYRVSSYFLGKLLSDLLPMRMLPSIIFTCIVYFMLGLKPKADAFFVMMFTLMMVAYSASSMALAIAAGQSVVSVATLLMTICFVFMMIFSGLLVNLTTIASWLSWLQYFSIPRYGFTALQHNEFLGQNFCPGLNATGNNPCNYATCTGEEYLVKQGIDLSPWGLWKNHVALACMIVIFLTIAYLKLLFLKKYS
Description: as §1, with “Fig. 7 provides the screening results for ABCB1 (A), ABCC1 (B), and ABCG2 (C).” left out
The inhibitory activity against ABCG2 was evaluated in a pheophorbide A assay as reported earlier, [67]. […] The effect values of compounds 16–25 were measured via flow cytometry [Guava easyCyte^TM HT, (Merck Millipore, Billerica, MA, USA; excitation: 488 nm; emission: 695/50 nm)] and compared to the effect value of 10 µM of compound 27.

T1 sequence (P33527 whole entry): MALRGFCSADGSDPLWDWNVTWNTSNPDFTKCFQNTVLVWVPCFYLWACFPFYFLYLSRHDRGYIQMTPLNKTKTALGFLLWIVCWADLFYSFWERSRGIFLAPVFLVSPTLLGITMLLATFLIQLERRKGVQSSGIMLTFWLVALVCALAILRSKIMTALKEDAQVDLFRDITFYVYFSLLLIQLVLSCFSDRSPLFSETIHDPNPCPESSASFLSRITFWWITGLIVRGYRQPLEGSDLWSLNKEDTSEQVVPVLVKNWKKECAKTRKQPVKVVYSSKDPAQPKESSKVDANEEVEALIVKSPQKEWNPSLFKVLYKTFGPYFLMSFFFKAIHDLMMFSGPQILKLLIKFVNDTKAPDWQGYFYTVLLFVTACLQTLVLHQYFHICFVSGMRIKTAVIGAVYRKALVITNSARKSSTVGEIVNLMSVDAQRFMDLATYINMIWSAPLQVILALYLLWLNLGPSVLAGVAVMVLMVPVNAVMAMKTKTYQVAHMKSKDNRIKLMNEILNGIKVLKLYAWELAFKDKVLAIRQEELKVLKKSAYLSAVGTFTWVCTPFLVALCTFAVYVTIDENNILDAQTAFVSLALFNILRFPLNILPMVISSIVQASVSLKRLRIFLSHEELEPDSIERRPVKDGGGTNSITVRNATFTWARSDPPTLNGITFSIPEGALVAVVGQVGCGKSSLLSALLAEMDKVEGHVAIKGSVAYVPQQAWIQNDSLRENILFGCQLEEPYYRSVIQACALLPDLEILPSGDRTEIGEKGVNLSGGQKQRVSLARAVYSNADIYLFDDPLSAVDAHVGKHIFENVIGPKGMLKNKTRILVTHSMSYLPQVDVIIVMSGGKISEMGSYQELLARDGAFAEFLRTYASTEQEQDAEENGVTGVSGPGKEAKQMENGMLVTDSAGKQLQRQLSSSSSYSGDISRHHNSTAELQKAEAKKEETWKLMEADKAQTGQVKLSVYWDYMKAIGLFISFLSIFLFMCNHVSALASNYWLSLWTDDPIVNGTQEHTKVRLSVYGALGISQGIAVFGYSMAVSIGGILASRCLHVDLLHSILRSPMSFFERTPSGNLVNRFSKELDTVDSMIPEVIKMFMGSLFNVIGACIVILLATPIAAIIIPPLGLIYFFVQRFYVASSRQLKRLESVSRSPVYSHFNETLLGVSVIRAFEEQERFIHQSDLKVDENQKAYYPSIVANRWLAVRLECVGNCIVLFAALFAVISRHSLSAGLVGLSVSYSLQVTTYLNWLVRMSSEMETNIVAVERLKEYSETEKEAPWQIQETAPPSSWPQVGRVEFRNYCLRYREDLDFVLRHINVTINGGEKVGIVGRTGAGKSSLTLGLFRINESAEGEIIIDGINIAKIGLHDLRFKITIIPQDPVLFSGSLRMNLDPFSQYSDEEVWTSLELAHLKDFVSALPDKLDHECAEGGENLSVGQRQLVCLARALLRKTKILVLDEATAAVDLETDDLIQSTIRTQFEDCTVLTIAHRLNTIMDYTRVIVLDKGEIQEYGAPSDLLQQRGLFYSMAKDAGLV

SMILES | activity against ABCC1 in preliminary screening (ABCC1) | activity against ABCB1 in preliminary screening (ABCB1) | also measured
Cc1onc(-c2ccccc2)c1-c1nnc(CN2CCCC2c2ccc3c(c2)OCCCO3)o1 (centres unmarked) [compound 16, 2-((2-(3,4-dihydro-2H-benzo[b][1,4]dioxepin-7-yl)pyrrolidin-1-yl)methyl)-5-(5-methyl-3-phenyl-isoxazol-4-yl)-1,3,4-oxadiazole] | inhibited ABCC1 | activities against ABCB1 | –
O=C(NC1CCC(OC(=O)c2cncn2-c2ccc(F)cc2)CC1)c1cncn1-c1ccc(F)cc1 (centres unmarked) [compound 17, 4-(1-(4-fluorophenyl)-1H-imidazole-5-carboxamido)cyclohexyl 1-(4-fluorophenyl)-1H-imidazole-5-carboxylate] | – | activities against ABCB1 | –
O=C(CN1CCN(C(=O)Cn2cnc3scc(-c4cccs4)c3c2=O)CC1)N1CCCCCC1 [compound 18, 3-(2-(4-(2-(azepan-1-yl)-2-oxoethyl)piperazin-1-yl)-2-oxoethyl)-5-(thiophen-2-yl)thieno[2,3-d]pyrimidin-4(3H)-one] | inhibited ABCC1 | – | –
O=C(c1cccn1-c1nnc(N2CCCC2)s1)N1CCN(Cc2ccc3c(c2)OCO3)CC1 [compound 19, (4-(benzo[d][1,3]dioxol-5-ylmethyl)piperazin-1-yl)(1-(5-(pyrrolidin-1-yl)-1,3,4-thiadiazol-2-yl)-1H-pyrrol-2-yl)methanone] | – | activities against ABCB1 | –
C1=CC2=NC3N4CN(CCCN5CCOCC5)CNC4=NC(c4ccccn4)N3C2C=C1 (centres unmarked) [compound 20, 4-(3-(6-(pyridin-2-yl)-4,6,7a,12a-tetrahydro-1H-benzo[4,5]imidazo[1,2-a][1,3,5]triazino[1,2-c][1,3,5]triazin-2(3H)-yl)propyl)morpholine] | did inhibit neither of the evaluated transporters | did inhibit neither of the evaluated transporters | activity against ABCG2 in preliminary screening (ABCG2; screened at 10 µM, active = at least 20% (+SEM) of effect of 10 µM compound 27): did inhibit neither of the evaluated transporters
Cc1nc(N2CCN(C(=O)C(c3ccccc3)c3ccccc3)CC2)cc(-n2ccnc2)n1 [compound 23, 1-(4-(6-(1H-imidazol-1-yl)-2-methylpyrimidin-4-yl)piperazin-1-yl)-2,2-diphenylethan-1-one] | – | – | IC50 (ABCG2; pheophorbide A assay, MDCK II BCRP cells, 100% = 10 µM reference inhibitor 27, read-out: IC50 against ABCG2): 9.27 µM; IC50 (ABCC1; calcein AM assay, H69AR cells, 100% = 10 µM reference inhibitor 26, read-out: IC50 against ABCC1): 14.8 µM; IC50 (ABCB1; calcein AM assay, A2780/ADR cells, 100% = 10 µM reference inhibitor 2, read-out: IC50 against ABCB1): 4.01 µM
